Test results as given in patent US9879029B2, “ERK inhibitors” (Eli Lilly and Company, priority 2014, dated 2018).
pIC50: −log10 of the molar value.

Tests used:
[1] = test system: human melanoma cells A-375; experiment: Xenograft tumor model A-375; assay type: in vivo, female NIH nude rats; conditions: oral; for Regression (%): p <0.001
Description: (§1) The purpose of this assay is to measure reduction in tumor volume in response to test compound administration. Expand human colorectal cancer cells HCT116 (ATCC, #CCL-247) or human non-small cell lung cancer cells NCI-H358 (ATCC, # CRL-5807) in culture, harvest and inject 5×10e^6 cells in 200 μL of 1:1 HBSS+matrigel solution subcutaneously on to the rear right flank of female athymic nude mice (22-25 gm, Harlan Laboratories). Expand human pancreatic cancer cells SW1990 (ATCC, # CRL-2172) in culture, harvest and inject 2×10e^6 cells in 200 μL of 1:1 HBSS+matrigel solution subcutaneously on to the rear right flank of female athymic nude mice (22-25 gm, Harlan Laboratories). Expand human pancreatic cancer cells MIA PACA-2 (ATCC, # CRL-1420) or human non-small cell lung cancer cells A549 (ATCC, # CCl-185) in culture, harvest and inject 5×10e^6 cells in 200 μL of 1:1 HBSS+matrigel solution subcutaneously on to the rear right flank of female CB-17 SCID mice (22-25 gm, Charles River Laboratories International Inc.). Expand human melanoma cells A-375 (ATCC, # CRL-1619) in culture, harvest and inject 5×10e^6 cells in 200 μL of 1:1 HBSS+matrigel solution subcutaneously on to the rear right flank of female NIH nude rats (140-160 gm, Taconic Farms). Measure tumor growth and body weight twice per week beginning the seventh day after the implantation. When tumor sizes reach 200-400 mm^3, randomize animals and group into groups of eight to ten animals. Prepare test compound in an appropriate vehicle (vehicle: 1% HEC/0.25% Tween 80/0.05% Antifoam) and administer by oral gavage for 14 to 28 days. Tumor response is determined by tumor volume measurement performed twice a week during the course of treatment.

ERK2 = biological target: T1, ERK2 (Homo sapiens, UniProt P28482); experiment: ERK2 kinase assay (TR-FRET); assay type: biochemical; conditions: Abs_IC50, ATP 10 μM; ±0.682, n=17
T1 construct: purchased Invitrogen PV3595B
Description: The purpose of this assay is to measure the ability of compounds to inhibit ERK2 kinase activity. Perform the ERK2 kinase assay in vitro using a TR-FRET assay. Start all reactions (12.5 μL) by adding 5 µL of ERK2 enzyme (Invitrogen, #PV3595B, final conc 50 ng/mL) plus substrate GFP-ATF2 (Invitrogen, #PV4445, final conc 0.2 μM), 5 µL of ATP solution (Invitrogen, #PV3227, final conc 10 μM) prepared in kinase buffer (50 mM Hepes pH 7.4, 5 mM MgCl2, 0.1 mM EGTA, 0.01% Triton X-100, 1 mM DTT) and 2.5 μL of testing compounds in DMSO solution ([…], v/v) in a 384-well PROXIPLATE™ (Perkin Elmer, #GRN6260). Incubate reactions at room temperature for 60 minutes. Stop reactions by addition of […] of stop buffer (10 mM EDTA, 2 nM Tb-anti-pATF2 (pThr71) antibody, Invitrogen, #PV4448) in TR-FRET dilution buffer (Invitrogen, # PV3574). Incubate the plates at room temperature for an additional 60 minutes and read ON ENVISION® (PerkinElmer) plate reader at the excitation wavelength of 340 nm. Calculate a TR-FRET ratio by dividing the GFP acceptor emission signal (at 520 nm) by the Tb donor emission signal (at 495 nm). Calculate percent inhibition using compound wells relative to on-plate Max (DMSO control) and Min (No enzyme added) control wells TR-FRET ratio data {% inhibition=100−[(test compound−median Min)/(median Max−Min)×100]}. […]

ERK1 = biological target: T2, ERK1 (Homo sapiens, UniProt P27361); experiment: ERK1 kinase assay (TR-FRET); assay type: biochemical; conditions: Abs_IC50, ATP 10 μM; ±0.608, n=16
T2 construct: purchased Invitrogen PR5254B
Description: The purpose of this assay is to measure the ability of compounds to inhibit ERK1 kinase activity. Perform the ERK1 kinase assay in vitro using a TR-FRET assay. […] Incubate the reaction mixture at room temperature for 60 minutes. Stop the reaction by addition of 12.5 μL of stop buffer (10 mM EDTA, 2 nM Tb-anti-pATF2 (pThr71) antibody, Invitrogen, #PV4448) in TR-FRET dilution buffer (Invitrogen, # PV3574). Incubate the plates at room temperature for an additional 60 minutes and read on an ENVISION® (PerkinElmer) plate reader at the excitation wavelength 340 nm. Calculate the TR-FRET ratio by dividing the GFP acceptor emission signal (at 520 nm) by the Tb donor emission signal (at 495 nm). Calculate percent inhibition using compound treated wells relative to on-plate Max (DMSO control) and Min (No enzyme added) control wells TR-FRET ratio data {% inhibition=100−[(test compound−median Min)/(median Max−median Min)×100]}). Test all compounds at 10 concentrations (20 μM to 0.001 μM) using a 1:3 dilution scheme. Derive Abs_IC50 values by fitting percent inhibition and ten-point concentration data to a 4-parameter nonlinear logistic equation (equation 205) using ACTIVITYBASE® 7.3 (ID Business Solutions Limited).

[2] = test system: human colorectal cancer cells HCT116; experiment: Xenograft tumor model HCT116; assay type: in vivo, female athymic nude mice; conditions: oral
Description: as §1

T2 sequence (P27361 whole entry): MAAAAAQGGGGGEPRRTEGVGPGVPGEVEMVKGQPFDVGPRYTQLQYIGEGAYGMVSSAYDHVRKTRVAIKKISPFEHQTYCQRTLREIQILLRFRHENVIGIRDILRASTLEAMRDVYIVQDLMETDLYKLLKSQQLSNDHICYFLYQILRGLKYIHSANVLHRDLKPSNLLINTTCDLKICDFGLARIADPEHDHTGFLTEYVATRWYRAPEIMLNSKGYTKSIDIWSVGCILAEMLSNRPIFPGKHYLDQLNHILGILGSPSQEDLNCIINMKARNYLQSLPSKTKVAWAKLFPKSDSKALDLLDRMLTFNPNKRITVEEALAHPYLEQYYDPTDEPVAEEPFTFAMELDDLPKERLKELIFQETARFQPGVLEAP
T1 sequence (P28482 whole entry): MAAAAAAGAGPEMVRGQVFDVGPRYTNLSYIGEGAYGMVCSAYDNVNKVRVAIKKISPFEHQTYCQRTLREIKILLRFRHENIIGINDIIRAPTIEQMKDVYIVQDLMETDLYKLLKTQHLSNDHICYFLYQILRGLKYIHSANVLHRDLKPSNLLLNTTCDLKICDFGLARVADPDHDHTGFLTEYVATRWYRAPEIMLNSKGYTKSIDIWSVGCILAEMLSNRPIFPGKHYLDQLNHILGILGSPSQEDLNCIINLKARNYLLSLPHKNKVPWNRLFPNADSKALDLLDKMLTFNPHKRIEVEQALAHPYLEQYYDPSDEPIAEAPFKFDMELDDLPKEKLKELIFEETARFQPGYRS

In the case of `COCCN1C(=O)c2cc(-c3ccnc(Nc4ccnn4C)c3)sc2C1(C)C` [Example 1, 5-(2-Methoxyethyl)-6,6-dimethyl-2-{2-[(1-methyl-1H-pyrazol-5-yl)amino]pyridin-4-yl}-5,6-dihydro-4H-thieno[2,3-c]pyrrol-4-one], the “Regression (%)” value ([1]; A-375, 3 mg/kg BID) was −60%, the “Delta T/C (%)” value ([1]; A-375, 3 mg/kg QD, p 0.852) was 10% and the “Regression (%)” value ([1]; A-375, 15 mg/kg BID) was −47%. The pIC50 (ERK2) was 8.71, the pIC50 (ERK1) was 8.82 and the “Delta T/C (%)” value ([2]; HCT116, 10 mg/kg BID, p 0.023) was 55%. For the same molecule, the “Delta T/C (%)” value ([2]; HCT116, 25 mg/kg BID, p <0.001) was 89%, the “Regression (%)” value ([2]; HCT116, 50 mg/kg BID, p <0.001) was −31% and the “Delta T/C (%)” value ([2]; HCT116, 50 mg/kg QD, p <0.001) was 83%. For the same molecule, the “Delta T/C (%)” value ([2]; HCT116, 75 mg/kg QD, p <0.001) was 98%.
